This is an account of results in US10259799B2, “Hydroxyl pyranone compound, method for producing same, and cosmetics composition comprising compound” (AMOREPACIFIC CORPORATION, priority 2015, dated 2019).

For this assay, the system named is human adipose tissue derived mesenchymal stem cells (hAT-MSCs). The experiment in a line: Adipocyte differentiation promoting effect: adiponectin in culture medium by ELISA. It counts as cell-based. To be noted: for expression level of adiponectin (in words): hAT-MSCs with IDX, 14th day, comment on Table 1; for Adiponectin (pg/ml, Avg ± S.D.): medium collected on 14th day of differentiation. On the procedure: In order to examine the adipocyte differentiation promoting effect of the compounds prepared in the Example, the following test was carried out.
Adiponectin is a typical protein hormone secreted from adipocytes. It has been reported that as adipocytes are differentiated, the expression of adiponectin is increased. Therefore, the adipocyte differentiation promoting effect was confirmed by measuring the amount of adiponectin expressed in the cell culture medium when treated with the novel compound of the present invention, which is an indicator of adipocyte differentiation promoting.
The adipocyte differentiation was performed by culturing human adipose tissue derived mesenchymal stem cells (hAT-MSCs) from Lonza Inc. (Walkersville, Md., USA) according to Lonza's guidelines. The adipocyte differentiation was carried out using the method recommended by Lonza Inc., except that the adipocyte differentiation of adipose-derived mesenchymal stem cells is induced by using troglitazone (TRO) instead of indomethacin. Specifically, the mesenchymal stem cells were differentiated into adipocytes by adding the medium for adipocyte differentiation (hereinafter referred to as IDX), which was prepared by mixing […] of insulin, […] of Dexamethasone (DEXA), 0.5 mM of isobutylmethylxanthine (IBMX) and […] of TRO, to the culture medium of mesenchymal stem cells, and then culturing it.
In order to determine the expression level of adiponectin, after the medium for adipocyte differentiation was collected on the 14th day of differentiation, the amount of adiponectin was quantified using the Adiponectin ELISA Kit (R & D systems, Cat. No. DY1065) (each data value was corrected by the control group). The specific measurement method using Adiponectin ELISA Kit was as follows.
First, the capture antibody was reacted in a 96-well plate, washed with washing buffer solution, and then the material shown in Table 1 below was added and reacted at room temperature for 2 hours. Thereafter, while washing three times every time when going through each step, the detection antibody, the HRP enzyme, the substrate solution, and the stop solution were added in order and reacted for the time indicated in the protocol. After the final reaction, the absorbance was measured at a wavelength of 450 nm using a spectrophotometer.

Molecules are shown by their SMILES.

For the compound `O=c1cc(CO)occ1O` [Kojic acid], the “expression level of adiponectin (in words)” value is reported as “not increased”.
Regarding `O=C(/C=C/c1ccc2c(c1)OCO2)OCc1cc(=O)c(O)co1` [Seletinoid G], the “Adiponectin (pg/ml, Avg ± S.D.)” value turned out to be 1505 ± 109 pg/mL.
On to `CC1=C(/C=C/C(=O)OCc2cc(=O)c(O)co2)C(C)(C)CCC1` [compound of example, 3-(2,6,6-trimethyl-cyclohex-1-enyl)-propenoic acid 5-hydroxy-4-oxo-4H-pyran-2-ylmethyl ester], for which the “expression level of adiponectin (in words)” value is reported as “increases almost similarly to that with Glibenclamide” and the “Adiponectin (pg/ml, Avg ± S.D.)” value turned out to be 1804 ± 110 pg/mL.
